Measured values from patent US12391683B2, “Therapeutic compounds and methods” (Actio Biosciences, Inc., priority 2022, dated 2025).
“And” between values parts separate entries of the source, which are not always exact repeats. Equal values may be shown once.

Columns and labels:
[1] = molecular target: Human TRPV4 (Homo sapiens, UniProt Q9HBA0); experiment: TRPV4 calcium flux assay (FLIPR, antagonist mode); format: cell-based; design: HiBiT (inferred from the expression read-out); host or cells: HEK293T; conditions: HEK293T cells transfected with hTRPV4; antagonist mode vs EC80 of TRPV4 agonist; average of at least 3 separate experiments; read-out: Human TRPV4 Ca2+ Assay IC50
Human TRPV4, sequence (Q9HBA0 whole entry): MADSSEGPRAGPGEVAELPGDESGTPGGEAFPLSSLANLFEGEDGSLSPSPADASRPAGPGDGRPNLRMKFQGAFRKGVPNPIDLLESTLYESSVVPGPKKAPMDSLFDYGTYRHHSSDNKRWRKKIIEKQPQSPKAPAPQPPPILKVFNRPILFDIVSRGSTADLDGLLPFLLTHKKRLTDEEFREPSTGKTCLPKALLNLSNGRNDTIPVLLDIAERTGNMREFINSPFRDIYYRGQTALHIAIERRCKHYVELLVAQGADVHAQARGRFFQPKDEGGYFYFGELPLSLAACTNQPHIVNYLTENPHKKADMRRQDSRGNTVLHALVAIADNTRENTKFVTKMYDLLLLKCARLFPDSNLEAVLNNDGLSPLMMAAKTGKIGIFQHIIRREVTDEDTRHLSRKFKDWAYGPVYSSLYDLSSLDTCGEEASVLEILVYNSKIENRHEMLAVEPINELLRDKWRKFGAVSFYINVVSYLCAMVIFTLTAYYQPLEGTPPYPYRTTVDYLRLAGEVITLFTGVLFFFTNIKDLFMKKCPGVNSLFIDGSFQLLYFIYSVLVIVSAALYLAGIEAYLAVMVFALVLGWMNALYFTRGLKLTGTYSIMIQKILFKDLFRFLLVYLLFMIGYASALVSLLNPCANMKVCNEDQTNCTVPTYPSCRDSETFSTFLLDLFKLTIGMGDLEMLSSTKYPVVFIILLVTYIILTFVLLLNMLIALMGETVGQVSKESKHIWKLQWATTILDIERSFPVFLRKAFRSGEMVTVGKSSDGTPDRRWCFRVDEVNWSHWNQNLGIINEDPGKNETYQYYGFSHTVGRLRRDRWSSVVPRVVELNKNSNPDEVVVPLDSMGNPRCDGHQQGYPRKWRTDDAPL
Procedure: Example 23. TRPV4 Calcium Assay Methods
Human embryonic kidney 293T (HEK293T/293T) cells are cultured in complete media (Dulbecco's Modified Eagle Medium (DMEM), containing 10% fetal bovine serum (FBS) and 1× penicillin-streptomycin) in a T-75 tissue culture flask. At 90% confluency, cells are detached using TrypLE™ Express cell dissociation buffer. TrypLE™ Express buffer is neutralized by adding culture media in excess. Cells are gently triturated and counted using trypan blue in a Countess 3 automated cell counter. Cells are transferred to a 50 mL conical tube and spun down at 1000 rotations per minute (RPM) for five minutes in a benchtop centrifuge. Media containing detaching enzyme is aspirated off the pellet, followed by resuspension to the desired concentration of 2×10^6 cells per mL in complete DMEM.
Transfection preparations were scaled using a combination of 6 μg of TRPV4 wild-type or mutant plasmid DNA, 36 μL of Fugene6 transfection reagent, and 1000 μL of OptiMEM media for every 2×10^6 cells needed. The transfection mix is left to incubate for 20 minutes at room temperature. Total seeding mixture (1000 μL 2×10^6 cells, 1000 μL transfection mix previously described, and 1000 μL complete DMEM) for one transfection is combined into a 15 mL conical tube. The cells and transfection plasmid are mixed thoroughly and dispensed into a reservoir. This is plated at 25 μL per well in a black 384, black-well, clear-bottom, tissue-culture treated plate. This yields approximately 16,000 cells per well. Plasmid DNA constructs were designed by Actio Biosciences in conjunction with Genscript, and generated by Genscript, for all hTRPV4 wild-type and hTRPV4 P/LP (ClinVar) mutations (G78W, P82S, T891, P97R, R186Q, R232C, R232P, R237G, R237Q, R237 L, R269C, R269H, R269S, G270V, R271P, F273 L, K276E, E278K, G280S, Y281S, R315G, R315W, R316C, R316H, R316 L, R316S, I331F, D333G, S403T, K403T, K407E, S542P, S542Y, L543R, Y591N, R594C, R594H, R594S, G600E, Y602C, R616Q, F617 L, L618P, V6201, A716S, A716T, L735R, T740I, R775K, W785R, E797D, E797K, P799A, P799R, P799S, P799 L, G800D, K801E, P827H, F471del, N797del). The remaining cells are plated in the same manner, in a 384, white-well, clear-bottom, tissue-culture treated plate for expression and relative cell number determination. Plates are placed in the incubator at 37° C. overnight.
Compounds were brought to 10 mM in DMSO. DMSO concentration was kept constant throughout the dilution of any compound. DMSO negative control and concentration-response curves were nanoliter-spotted via PICO8 automated dispenser at 5× test concentration into a 384w clear polypropylene plate containing 1×HBSS+20 mM HEPES buffer. A predetermined concentration equivalent to the EC80 of TRPV4 agonist on hTRPV4 was prepared at 6× in 1×HBSS+20 mM HEPES and loaded into a separate 384-well v-bottom polypropylene plate.
Approximately 18 hours post-transfection, the cell plates were removed from the incubator and equal volume (25 uL) Calcium 6 dye was gently added. Calcium 6 dye containing probenecid (final 5 mM) was prepared per manufacturer's instructions. Cell plate was returned to the incubator for 1 hour, at 37° C.
FLIPR Penta was programmed to add compound using the following settings • Pipettor Head=384 • Read Mode 1 Excitation Wavelength=470_495 • Read Mode 1 Emission Wavelength=515_575 • Read Mode 1 Exposure=0.1000 • Read Mode 1 Gain=6.50 • Read Mode 1 Excitation Intensity=20 • Volume of addition=12.5 μL • Height=40 μL • Speed=15 μL/second
Raw data was exported and analyzed for maximum signal (RFU) after agonist addition—the average baseline (RFU) in the first 15 seconds per well. Data was plotted in GraphPad Prism to determine EC50 or IC50 of the molecules.

[2] = molecular target: recombinant human CYP3A4 enzyme (Homo sapiens, UniProt P08684); experiment: CYP3A4 incubation assay; format: in vitro ADME
recombinant human CYP3A4 enzyme, sequence (P08684 whole entry): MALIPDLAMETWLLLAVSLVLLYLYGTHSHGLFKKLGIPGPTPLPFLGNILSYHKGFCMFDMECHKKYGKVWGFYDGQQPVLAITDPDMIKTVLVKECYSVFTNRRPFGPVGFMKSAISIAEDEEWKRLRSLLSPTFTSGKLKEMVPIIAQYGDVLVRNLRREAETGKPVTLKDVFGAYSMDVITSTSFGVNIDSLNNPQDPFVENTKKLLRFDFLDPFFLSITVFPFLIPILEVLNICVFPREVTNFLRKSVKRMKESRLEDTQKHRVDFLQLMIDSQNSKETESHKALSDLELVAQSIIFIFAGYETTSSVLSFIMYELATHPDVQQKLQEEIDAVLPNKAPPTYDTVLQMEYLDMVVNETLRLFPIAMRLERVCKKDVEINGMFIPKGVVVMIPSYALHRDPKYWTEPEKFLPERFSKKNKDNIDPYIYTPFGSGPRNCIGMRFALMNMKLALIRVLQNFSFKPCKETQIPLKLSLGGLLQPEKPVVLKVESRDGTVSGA
Procedure: Example 24. CYP3A4 Incubation Assay
Compounds (final concentration […]) were incubated in 100 mM phosphate buffer containing 100 pmol/mL recombinant human CYP3A4 enzyme for 0, 5, 10, 15 and 25 minutes.
Testosterone was used as positive control. Reaction was initiated by the addition of NADPH (final concentration […]) and carried out at 37° C. The reaction was stopped by the addition of 4 volumes of cold acetonitrile (with 100 nM alprazolam, 200 nM labetalol, 200 nM imipramine and 2 μM ketoprofen as internal standards). Samples were centrifuged at 3,220 g for 40 minutes to precipitate protein. 70 μL supernatant was transferred to the analysis plate containing 110 μL of acetonitrile for LC-MS/MS analysis.
The following table indicates the percentage remaining for the indicated examples after incubation with recombinant Human CYP3A4 after 25 minutes under the same conditions as described for Example […].

[3] = tested on: Hepatocytes; experiment: Hepatocytes predicted clearance, rat
[4] = tested on: Hepatocytes; experiment: Hepatocytes predicted clearance, dog
[5] = tested on: Hepatocytes; experiment: Hepatocytes predicted clearance, cyno
[6] = tested on: Hepatocytes; experiment: Hepatocytes predicted clearance, mouse
[7] = tested on: Hepatocytes; experiment: Hepatocytes predicted clearance, human
[8] = 100 pmol/mL recombinant human CYP3A4, 37° C., 0-25 min

Row | CYP3A4 Clint ([2]; human, recombinant enzyme) | Compound | IC50 [1] [nM] | CYP3A4 Clint [2, 8] | Hepatocytes predicted clearance in rat [3] [mL/min/kg] | Hepatocytes predicted clearance in dog [4] [mL/min/kg] | Hepatocytes predicted clearance in cyno [5] [mL/min/kg] | Hepatocytes predicted clearance in mouse [6] [mL/min/kg] | Hepatocytes predicted clearance in human [7] [mL/min/kg] | Metabolic Stability in Recombinant Human CYP3A4 + NADPH (% remaining after 25 min) ([2]; recombinant Human CYP3A4 + NADPH, 25 min) [%]
1 |  | CC(C)(O)c1cnc(N2C[C@@]3(CC[C@@H](F)[C@](C)(Cn4cnc5cc(F)c(C#N)cc54)C3)OC2=O)cn1 (single isomer, unassigned) [Example 18] | 9 |  |  |  |  |  |  | 
2 |  | C=C1CC[C@@]2(CN(c3cnc(C(C)(C)O)cn3)C(=O)O2)C[C@@]1(C)Cn1cnc2ccc(C#N)cc21 (single isomer, unassigned) [Example 16] | 2130 | 0.20 μL/min/pmol CYP450 and 0.19 μL/min/pmol CYP450 | 69.3 | 4 | 22.7 | 90.7 | 5.5 | 
3 |  | CC(C)(O)c1cnc(N2C[C@@]3(CCC[C@](CF)(Cn4cnc5ccc(C#N)cc54)C3)OC2=O)cn1 (single isomer, unassigned) [Example 7] | 11 | <0.07, <0.07 μL/min/pmol CYP450 | 6.7 | < 0.17 | 4.5 | 43.2 | 1 | 
4 | <0.07, <0.07 μL/min/pmol CYP450 | CC(C)(O)c1cnc(N2C[C@@]3(CCC4(CC4)[C@](C)(Cn4cnc5ccc(C#N)cc54)C3)OC2=O)cn1 (single isomer, unassigned) [Example 6] | 8 |  | 8.3 | 3.17 | 120 | 24.5 | 6.5 | 
5 |  | CC(C)(O)c1cnc(N2C[C@@]3(CCC(C)(C)[C@H](Cn4cnc5ccc(C#N)cc54)C3)OC2=O)cn1 (single isomer, unassigned) [Example 1] | 606 |  | 10.8 | 11.5 | 4 | 118 | 4.5 | 
6 |  | CC(C)(O)c1cnc(N2C[C@@]3(CC[C@@H](F)[C@](C)(Cn4cnc5c(Cl)cc(C#N)cc54)C3)OC2=O)cn1 (single isomer, unassigned) [Example 19] | 9 |  |  |  |  |  |  | 
7 |  | CO[C@@H]1CC[C@@]2(CN(c3cnc(C(C)(C)O)cn3)C(=O)O2)C[C@@]1(C)Cn1cnc2ccc(C#N)cc21 (single isomer, unassigned) [Example 10] | 158 | 0.22 μL/min/pmol CYP450 and 0.21 μL/min/pmol CYP450 |  |  |  |  |  | 
8 |  | CCOc1ccccc1N1C[C@@]2(CCC(F)(F)[C@H](Cn3cnc4ccc(C#N)cc43)C2)OC1=O (single isomer, unassigned) [Example 13] | 496 |  |  |  |  |  |  | 
9 |  | CC(C)(O)c1cnc(N2C[C@@]3(CCC(F)(F)[C@](C)(Cn4cnc5ccc(C#N)cc54)C3)OC2=O)cn1 [Example 15, 1-(((5S,7S)-8,8-Difluoro-3-(5-(2-hydroxypropan-2-yl)pyrazin-2-yl)-7-methyl-2-oxo-1-oxa-3-azaspiro[4.5]decan-7-yl)methyl)-1H-benzo[d]imidazole-6-carbonitrile] | 8 | 0.09 μL/min/pmol CYP450 and < 0.07 μL/min/pmol CYP450 | 4.5 | 4.33 | 28.3 | 27.8 | 3.83 | 91.3
10 |  | CO[C@]1(Cn2cnc3ccc(C#N)cc32)CCC[C@@]2(CN(c3cnc(C(C)(C)O)cn3)C(=O)O2)C1 [Example 9, 1-(((5S,7R)-3-(5-(2-Hydroxypropan-2-yl)pyrazin-2-yl)-7-methoxy-2-oxo-1-oxa-3-azaspiro[4.5]decan-7-yl)methyl)-1H-benzo[d]imidazole-6-carbonitrile] | 213 | 0.42 μL/min/pmol CYP450 and 0.33 μL/min/pmol CYP450 |  |  |  |  |  | 
11 |  | CC(C)(O)c1cnc(N2C[C@@]3(CCC4(CC4)[C@@H](Cn4cnc5ccc(C#N)cc54)C3)OC2=O)cn1 (single isomer, unassigned) [Example 3] | 852 |  | 79.5 | 17.3 | 182 | 131 | 3.17 | 
12 |  | CC1(C)C[C@](C)(Cn2cnc3ccc(C#N)cc32)C[C@@]2(CN(c3cnc(C(C)(C)O)cn3)C(=O)O2)C1 (single isomer, unassigned) [Example 17] | 5740 | 0.07, <0.07 μL/min/pmol CYP450 | 39.3 | 1.3 | 43.7 | 119 | 1.5 | 
13 |  | N#Cc1ccc2ncn(C[C@@H]3C[C@@]4(CCC3(F)F)CN(c3ccccc3Cl)C(=O)O4)c2c1 (single isomer, unassigned) [Example 12] | 103 |  | 82.5 | 284.5 | 101 | 449.3 | 7.5 | 
14 |  | CC(C)(C)CN1C[C@@]2(CCC(F)(F)[C@H](Cn3cnc4ccc(C#N)cc43)C2)OC1=O (single isomer, unassigned) [Example 11] | 39 |  | 251.2 | 63.3 | 90.5 | 515.2 | 17.3 | 
